Results published in ChEMBL document CHEMBL6074640, “Novel Heteroaryl Fluoroalkenes as DGK Inhibitors for Treating Cancer, Particularly Metastatic Melanoma” (ACS Med Chem Lett, 2024).
pIC50: −log10 of the molar value.

Biological target: Diacylglycerol kinase alpha (Homo sapiens, UniProt P23743)
Assay: Inhibition of His-tagged recombinant human DGKalpha using DLG as substrate preincubated with substrate and ATP for 1 mins followed by compound addition and measured after 90 mins by ADP-Glo kinase assay

Chain of Diacylglycerol kinase alpha (P23743 whole entry): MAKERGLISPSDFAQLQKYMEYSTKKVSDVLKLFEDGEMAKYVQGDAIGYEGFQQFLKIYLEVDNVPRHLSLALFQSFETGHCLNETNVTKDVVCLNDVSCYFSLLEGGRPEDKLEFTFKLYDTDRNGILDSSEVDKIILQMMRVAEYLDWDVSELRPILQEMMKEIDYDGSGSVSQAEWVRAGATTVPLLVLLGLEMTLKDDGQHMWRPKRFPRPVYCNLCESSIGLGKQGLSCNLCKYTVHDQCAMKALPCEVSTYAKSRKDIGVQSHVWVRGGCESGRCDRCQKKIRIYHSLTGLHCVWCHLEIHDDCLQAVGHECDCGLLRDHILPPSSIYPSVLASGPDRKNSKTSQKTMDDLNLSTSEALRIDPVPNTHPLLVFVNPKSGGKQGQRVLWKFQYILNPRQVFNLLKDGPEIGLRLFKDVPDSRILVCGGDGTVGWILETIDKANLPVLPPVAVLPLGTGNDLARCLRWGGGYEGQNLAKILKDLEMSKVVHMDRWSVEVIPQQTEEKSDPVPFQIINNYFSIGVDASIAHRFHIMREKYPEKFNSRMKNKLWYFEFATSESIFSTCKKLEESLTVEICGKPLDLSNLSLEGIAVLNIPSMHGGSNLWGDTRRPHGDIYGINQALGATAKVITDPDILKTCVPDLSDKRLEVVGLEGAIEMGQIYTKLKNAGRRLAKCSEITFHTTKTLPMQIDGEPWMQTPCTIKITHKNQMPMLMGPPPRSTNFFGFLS

pIC50, ≥ 7.70:
CCN1CCC2(CCCN(c3c(/C=C(\F)c4nccc(N5CC(F)(F)C5)n4)ccc(Oc4ccccc4F)c3C(F)(F)F)C2)CC1
F/C(=C\c1ccc(Oc2ccccc2F)c(C(F)(F)F)c1N1CCCC2(CCN(CC3CC3)CC2)C1)c1nccc(-c2cnsc2)n1
COc1cc(F)ccc1Oc1ccc(/C=C(\F)c2nncc(N3CCC(F)(F)C3)n2)c(N2CCC[C@@H](CN)C2)c1Cl
CCN1CCC2(CC1)CN(c1c(/C=C(\F)c3nccc(-c4ccnnc4)n3)ccc(Oc3ccccc3)c1C(F)(F)F)CCO2
NC[C@H]1CCCN1c1c(/C=C(\F)c2nccc(-c3ccnnc3)n2)ccc(Oc2ccccc2)c1Cl
